Laboratory results from US20250134877A1, “METHODS OF TREATING CANCER DEPENDENT ON MYC GENE EXPRESSSION” (KARTOS THERAPEUTICS, priority 2021, published 2025).

How the values were obtained:
[1] = system: other members of the CD28 family; conditions: selectivity; cited from earlier work
p21 gene expression [2] = assay: Gene expression analysis of PBMC samples from relapsed/refractory myelofibrosis patients: p21; type: in vivo, human; conditions: R/R myelofibrosis patients, 120 mg or 240 mg for 7 days or 240 mg for 5 days, C1D1 pre-dose vs C1D5, C1D6/8, FIG. 1
Excerpt: (§1) FIG. 1 illustrates that the compound of Formula (I) induces p21 and represses Myc in relapsed/refractory myelofibrosis (R/R MF) patients. PBMC samples from the patients were used for the gene expression analyses. fdr.q refers to false discovery rate adjusted significance value for change in normalized gene expression. C1D1 refers to Cycle 1, Day 1. C1D5 refers to Cycle 1, Day 5. C1D6/8 refers to Cycle 1, Day 6 or 8.
(§2) Effects of the compound of Formula (I) were investigated on the gene expression of p21 and Myc in the patients of relapsed/refractory myelofibrosis. In the study, The compound of Formula (I) is administered at 120 mg for 7 days for Cohort 1, 240 mg for 7 days for Cohort 2, 240 mg for 7 days for Cohort 3, and 240 mg for 5 days for Cohort 4.
(§3) The peripheral blood mononuclear cell (PBMC) samples were taken from the patients pre-dosing on day 1 of cycle 1, day 5 of cycle 1, day 6 of cycle 1, and day 8 of cycle 1.

Myc gene expression [3] = assay: Gene expression analysis of PBMC samples from relapsed/refractory myelofibrosis patients: Myc; type: in vivo, human; conditions: R/R myelofibrosis patients, 120 mg or 240 mg for 7 days or 240 mg for 5 days, C1D1 pre-dose vs C1D5, C1D6/8, FIG. 1
Excerpt: as §1, §2, §3

Myc gene expression [4] = assay: Gene expression analysis of PBMC samples from relapsed/refractory AML patients: Myc; type: in vivo, human; conditions: R/R AML patients, 120, 180, 240 or 360 mg daily for seven days, C1D1 pre-dose vs C1D5, FIG. 2
Description: (§4) FIG. 2 illustrates that the compound of Formula (I) induces p21 and represses Myc in relapsed/refractory acute myeloid leukemia (AML) patients. PBMC samples from the patients were used for the gene expression analyses. C1D1 refers to Cycle 1 Day 1. C1D5 refers to Cycle 1 Day 5.
(§5) Effects of the compound of Formula (I) were investigated on the gene expression of p21 and Myc in the AML patients.
(§6) In dose-escalation phase study, the dosing of the compound of Formula (I) is 120 mg (three patients); 180 mg (2 patients), 240 mg (8 patients), and 360 mg (4 patients) daily for seven days, with different ‘off-treatment’ duration depending on cohort assignments. The peripheral blood mononuclear cell (PBMC) samples were taken from patients pre-dosing on day 1 of cycle 1, and day 5 of cycle 1.

p21 gene expression [5] = assay: Gene expression analysis of PBMC samples from relapsed/refractory AML patients: p21; type: in vivo, human; conditions: R/R AML patients, 120, 180, 240 or 360 mg daily for seven days, C1D1 pre-dose vs C1D5, FIG. 2
Description: as §4, §5, §6

| Compound | binding to other members of the CD28 family [1] | effect on p21 gene expression (p21 gene expression [2]) | effect on Myc gene expression (Myc gene expression [3]) | effect on Myc gene expression (Myc gene expression [4]) | effect on p21 gene expression (p21 gene expression [5]) |
| --- | --- | --- | --- | --- | --- |
| 5C4: fully human IgG4 antibody blocking the PD-1 receptor; 5C4 in WO 2006/121168 and U.S. Pat. No. 8,008,449 [Formula 5C4] | do not bind | – | – | – | – |
| CC(C)[C@@H](CS(=O)(=O)C(C)C)N1C(=O)[C@@](C)(CC(=O)O)CC(c2cccc(Cl)c2)[C@H]1c1ccc(Cl)cc1 (stereo partly drawn) [Formula (I), 2-((3R,5R,6S)-5-(3-chlorophenyl)-6-(4-chlorophenyl)-1-((S)-1-(isopropylsulfony1)-3-methylbutan-2-y1)-3-methyl-2-oxopiperidin-3-yl) acetic acid] | – | induces | represses | represses | induces |
